From US20100222421A1, “Usage of Baicalein in the Preparation of a Pharmaceutical Composition for the Treatment of Traumatic Brain Injury” (National Defense Medical Center, priority 2009, published 2010)

Assays:
Format in all cases: in vivo, rat
[1] = system: rats with controlled cortical impact (CCI) injury; experiment: Rotarod test after CCI injury; settings: for performance on the rotarod test versus vehicle-treated rats: days 1 to 28, P<0.05
Description: (§1) A previously described CCI injury procedure was utilized (Chen et al., 2003). Male Sprague-Dawley rats, which have body weight of 250-300 g, were anaesthetized with sodium pentobarbital (i.p.; 50 mgkg^−1; Rhone Merieux, Harlow, UK) and placed in a stereotaxic frame. A 5-mm craniotomy was performed over the left parietal cortex, centered on the coronal suture and 3 mm lateral to the sagittal suture. Considerable care was taken to avoid injury to the underlying dura. Injury was made using a pneumatic piston with a rounded metal tip (2.5 mm diameter) that was angled 22.5° C. to the vertical so that the tip was perpendicular with the brain surface at the centre of the craniotomy. A velocity of 4 ms^−1 and a deformation depth 2 mm below the dura were used. The bone flap was immediately replaced and sealed, and the scalp was closed with sutures. Body temperature was monitored throughout the surgery by a rectal probe; temperature was maintained at 37.0±0.5° C. using a heated pad. Rats were placed in a heated cage to maintain body temperature, while recovering from anaesthesia.
Baicalein (30 mg kg^−1) dissolved in 10% dimethyl sulphoxide (0.25-0.3 mL) or a corresponding volume of vehicle (10% dimethyl sulphoxide) was administered i.p. immediately following injury or daily for 4 days (immediately, 25, 49 and 73 h) after injury. Behaviour testing using the rotarod, tactile adhesive removal, mNSS and beam walk tests was performed at 28 hours as well as 4, 7, 14, 21 and 28 days post-injury. […]
An accelerating rotarod was used to measure rat motor function and balance (Hamm, 2001). Each rat was placed on the rotarod cylinder, and the time for which the animal remained on the rotarod was measured. […] One hour before CCI, the mean duration on the device was recorded with three rotarod measurements as the pre-injury baseline values. Post-injury latencies were expressed as a percentage of their respective baseline values to reduce inter-animal variability.

[2] = system: IL-1β protein; experiment: ELISA, IL-1β protein after CCI injury; settings: single-dose 30 mg kg^-1 i.p.; ipsilateral cortex, 1 day post-injury; P<0.01
Description: as §1, with “The bone flap was immediately replaced and sealed, and the scalp was closed with sutures.” left out, “Rats were placed in a heated cage to maintain body temperature, while recovering from anaesthesia.” left out
Single-dose baicalein (30 mg kg^−1) or a corresponding volume of vehicle was administered i.p. immediately following injury. […] Testing after injury was as follows: (1) real-time quantitative RT-PCR analysis for TNF-α, IL-1β and IL-6 mRNA expression at 6 h post-injury (n=7 for each group); (2) FluoroJade B (FJB) staining, TNF-α, IL-1β and IL-6 immunohistochemistry, as well as ELISA at 24 h post-injury to assess degenerative neurons and to determine cytokine expression (n=7 for each group). […]

[3] = system: rats with controlled cortical impact (CCI) injury; experiment: Pilot dose-selection studies, behavioural deficits; settings: 10 and 30 mg kg^-1 tested, result for 30 mg kg^-1 (unpublished observations)
Description: Baicalein (30 mg kg^−1) dissolved in 10% dimethyl sulphoxide (0.25-0.3 mL) or a corresponding volume of vehicle (10% dimethyl sulphoxide) was administered i.p. immediately following injury or daily for 4 days (immediately, 25, 49 and 73 h) after injury. Behaviour testing using the rotarod, tactile adhesive removal, mNSS and beam walk tests was performed at 28 hours as well as 4, 7, 14, 21 and 28 days post-injury. At 14 and 28 days, the animals were killed, perfused intravascularly and their brains were processed with cresyl violet staining to assess contusion volume (n=8 for each group).

[4] = system: rats with controlled cortical impact (CCI) injury; experiment: Modified neurological severity score (mNSS) after CCI injury; settings: P<0.05
Description: A previously described CCI injury procedure was utilized (Chen et al., 2003). Male Sprague-Dawley rats, which have body weight of 250-300 g, were anaesthetized with sodium pentobarbital (i.p.; 50 mgkg^−1; Rhone Merieux, Harlow, UK) and placed in a stereotaxic frame. A 5-mm craniotomy was performed over the left parietal cortex, centered on the coronal suture and 3 mm lateral to the sagittal suture. Considerable care was taken to avoid injury to the underlying dura. Injury was made using a pneumatic piston with a rounded metal tip (2.5 mm diameter) that was angled 22.5° C. to the vertical so that the tip was perpendicular with the brain surface at the centre of the craniotomy. A velocity of 4 ms^−1 and a deformation depth 2 mm below the dura were used. The bone flap was immediately replaced and sealed, and the scalp was closed with sutures. Body temperature was monitored throughout the surgery by a rectal probe; temperature was maintained at 37.0±0.5° C. using a heated pad. Rats were placed in a heated cage to maintain body temperature, while recovering from anaesthesia. Baicalein (30 mg kg^−1) dissolved in 10% dimethyl sulphoxide (0.25-0.3 mL) or a corresponding volume of vehicle (10% dimethyl sulphoxide) was administered i.p. immediately following injury or daily for 4 days (immediately, 25, 49 and 73 h) after injury. Behaviour testing using the rotarod, tactile adhesive removal, mNSS and beam walk tests was performed at […] as well as 4, 7, 14, 21 and 28 days post-injury. At 14 and 28 days, the animals were killed, perfused intravascularly and their brains were processed with cresyl violet staining to assess contusion volume (n=8 for each group). […] Behaviour testing was performed before CCI and at […] after CCI by an observer who was unaware of the experimental treatments. The battery of tests consisted of the rotarod motor test, tactile adhesive-removal somatosensory test, mNSS and beam walk test. […] One point was scored for the inability to perform the test or for the lack of a tested reflex; thus, the higher the score, the more severe the injury. […]

O=c1cc(-c2ccccc2)oc2cc(O)c(O)c(O)c12 [baicalein]
rotarod test, multiple-dose versus single-dose treatment ([1]; 30 mg kg^-1 i.p., days 1, 4, 7 and 21 after injury): significantly more effective | performance on the rotarod test versus vehicle-treated rats ([1]; multiple-dose 30 mg kg^-1 i.p. daily for 4 days): significantly better | performance on the rotarod test versus vehicle-treated rats ([1]; single-dose 30 mg kg^-1 i.p. immediately after injury): significantly better | IL-1β protein concentration, % of concentration in vehicle-treated rats [2]: 42% | neuroprotective effects in improving behavioural deficits [3]: found to have neuroprotetcive effects | mNSS neurological deficit, multiple-dose versus single-dose treatment ([4]; 30 mg kg^-1 i.p., days 4 and 7 after injury): significantly greater reduction | mNSS scores versus vehicle-treated group ([4]; multiple-dose 30 mg kg^-1 i.p. daily for 4 days, days 1-28): significantly less | mNSS scores versus vehicle-treated group ([4]; single-dose 30 mg kg^-1 i.p., days 1-14): significantly less
